In patent US10081631B2, “2-(1H-indazol-3-yl)-1H-imidazo[4,5-C]pyridine and therapeutic uses thereof” (Samumed, LLC, priority 2014, dated 2018):

How the values were obtained:
[1] = tested on: primary human fibroblasts derived from IPF patients (LL29 cells); experiment: Inhibition of fibrosis: TGF-β1-treated primary human fibroblasts from IPF patients (LL29), αSMA staining; assay type: cell-based; conditions: Fibroblast, 96 h, TGF-β1 20 ng/mL, 4 days, % αSMA-positive cells
Text: The above synthesized compounds were screened using primary human fibroblasts (derived from IPF patients) treated with TGF-β1 to determine their ability to inhibit the fibrotic process.
Primary human fibroblasts derived from IPF patients (LL29 cells) [^1Xiaoqiu Liu, et. al., “Fibrotic Lung Fibroblasts Show Blunted Inhibition by cAMP Due to Deficient cAMP Response Element-Binding Protein Phosphorylation”, Journal of Pharmacology and Experimental Therapeutics (2005), 315(2), 678-687; ^2Watts, K. L., et. al., “RhoA signaling modulates cyclin D1 expression in human lung fibroblasts; implications for idiopathic pulmonary fibrosis”, Respiratory Research (2006), 7(1), 88] were obtained from American Type Culture Collection (ATCC) and expanded in F12 medium supplemented with 15% Fetal Bovine Serum and Penicillin/Streptomycin.
Each compound was dissolved in DMSO as a 10 mM stock and used to prepare compound source plates. Serial dilution (1:2, 11-point dose-response curves from 10 μM to 1.87 nM) and compound transfer was performed using the ECHO 550 (Labcyte, Sunnyvale, Calif.) into 384-well clear bottom assay plates (Greiner Bio-One) with appropriate DMSO backfill for a final DMSO concentration of 0.1%. LL29 cells were plated at 1,500 cells/well in 80 μl/well F12 medium supplemented with 1% Fetal Bovine Serum. One hour after addition of the cells, TGF-β1 (Peprotech; 20 ng/mL) was added to the plates to induce fibrosis (ref 1 and 2 above). Wells treated with TGF-β1 and containing DMSO were used as controls. Cells were incubated at 37° C. and 5% CO2 for 4 days. Following incubation for 4 days, SYTOX green nucleic acid stain (Life Technologies [Thermo Fisher Scientific]) was added to the wells at a final concentration of 1 uM and incubated at room temperature for 30 min. Cells were then fixed using 4% formaldehyde (Electron Microscopy Sciences), washed 3 times with PBS followed by blocking and permeabilization using 3% Bovine Serum Albumin (BSA; Sigma) and 0.3% Triton X-100 (Sigma) in PBS. Cells were then stained with antibody specific to α-smooth muscle actin (αSMA; Abcam) (ref 1 and 2 above) in 3% Bovine Serum Albumin (BSA; Sigma) and 0.3% Triton X-100 (Sigma) in PBS, and incubated overnight at 4° C. Cells were then washed 3 times with PBS, followed by incubation with Alexa Flor-647 conjugated secondary antibody (Life Technologies [Thermo Fisher Scientific]) and DAPI at room temperature for 1 hour. Cells were then washed 3 times with PBS and plates were sealed for imaging. αSMA staining was imaged by excitation at 630 nm and emission at 665 nm and quantified using the Compartmental Analysis program on the CellInsight CX5 (Thermo Scientific). Dead or apoptotic cells were excluded from analysis based on positive SYTOX green staining. % of total cells positive for αSMA were counted in each well and normalized to the average of 11 wells treated with TGF-β1 on the same plate using Dotmatics' Studies Software. The normalized averages (fold change over untreated) of 3 replicate wells for each compound concentration were used to create dose-responses curves and EC50 values were calculated using non-linear regression curve fit in the Dotmatics' Studies Software. The EC50 values are reported.

[2] = tested on: Wnt activity (Sp5-Luc reporter, SW480 colon carcinoma cells); experiment: Screening assay for Wnt activity: Sp5-Luc reporter gene assay in SW480 cells; assay type: cell-based; conditions: Homo sapiens, 42 h incubation, luminescence
Procedure, shortened: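 IC50 values come from variable-slope four-parameter fits of luciferase signal normalized to DMSO wells. Stable Sp5-Luc reporter SW480 colon carcinoma cells were exposed to compounds in a 3-fold dilution series (source plates from 10 mM stock) for forty-two hours at 37 °C.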

IC50 [2] [µM]	Structure (SMILES)	EC50 [1] [µM]
0.003	Cc1ccncc1-c1ccc2[nH]nc(-c3nc4c(-c5ccsc5)nccc4[nH]3)c2c1 [Compound 239, 2-(5-(4-Methylpyridin-3-yl)-1H-indazol-3-yl)-4-(thiophen-3-yl)-1H-imidazo[4,5-c]pyridine]	0.06
0.108	CCNCc1cncc(-c2ccc3[nH]nc(-c4nc5c(-c6cc(F)cc(NCCN(C)C)c6)nccc5[nH]4)c3c2)c1 [Compound 422, N^1-(3-(2-(5-(5-((Ethylamino)methyl)pyridin-3-yl)-1H-indazol-3-yl)-1H-imidazo[4,5-c]pyridin-4-yl)-5-fluorophenyl)-N^2,N^2-dimethylethane-1,2-diamine]	0.108
0.172	CN1CCN(c2nccc3[nH]c(-c4n[nH]c5ccc(-c6cncc(CN7CCCCC7)c6)cc45)nc23)CC1 [Compound 223, 4-(4-Methylpiperazin-1-yl)-2-(5-(5-(piperidin-1-ylmethyl)pyridin-3-yl)-1H-indazol-3-yl)-1H-imidazo[4,5-c]pyridine]	1.11
< 0.001	Cc1cn(-c2nccc3[nH]c(-c4n[nH]c5ccc(-c6cncc(NC(=O)C7CCC7)c6)cc45)nc23)cn1 [Compound 202, N-(5-(3-(4-(4-Methyl-1H-imidazol-1-yl)-1H-imidazo[4,5-c]pyridin-2-yl)-1H-indazol-5-yl)pyridin-3-yl)cyclobutanecarboxamide]	0.013
0.006	CC(C)Nc1cncc(-c2ccc3[nH]nc(-c4nc5c(-c6cc(F)cc(NCCN(C)C)c6)nccc5[nH]4)c3c2)c1 [Compound 428, N^1-(3-Fluoro-5-(2-(5-(5-(isopropylamino)pyridin-3-yl)-1H-indazol-3-yl)-1H-imidazo[4,5-c]pyridin-4-yl)phenyl)-N^2,N^2-dimethylethane-1,2-diamine]	0.009
0.001	CCCC(=O)Nc1cncc(-c2ccc3[nH]nc(-c4nc5c(-c6ccsc6)nccc5[nH]4)c3c2)c1 [Compound 251, N-(5-(3-(4-(Thiophen-3-yl)-1H-imidazo[4,5-c]pyridin-2-yl)-1H-indazol-5-yl)pyridin-3-yl)butyramide]	0.018
0.673	CN1CCN(c2nccc3[nH]c(-c4n[nH]c5ccc(-c6cncc(NC(=O)CC(C)(C)C)c6)cc45)nc23)CC1 [Compound 224, 3,3-Dimethyl-N-(5-(3-(4-(4-methylpiperazin-1-yl)-1H-imidazo[4,5-c]pyridin-2-yl)-1H-indazol-5-yl)pyridin-3-yl)butanamide]	1.09
0.0094	CN(C)c1cncc(-c2ccc3[nH]nc(-c4nc5c(-c6ccccc6F)nccc5[nH]4)c3c2)c1 [Compound 59, 5-(3-(4-(2-Fluorophenyl)-1H-imidazo[4,5-c]pyridin-2-yl)-1H-indazol-5-yl)-N,N-dimethylpyridin-3-amine]	0.018
0.003	CN(C)c1cncc(-c2ccc3[nH]nc(-c4nc5c(N6CCCCC6)nccc5[nH]4)c3c2)c1 [Compound 163, N,N-Dimethyl-5-(3-(4-(piperidin-1-yl)-1H-imidazo[4,5-c]pyridin-2-yl)-1H-indazol-5-yl)pyridin-3-amine]	1.55
0.002	Cc1cn(-c2nccc3[nH]c(-c4n[nH]c5ccc(-c6cncc(NC(=O)CC(C)C)c6)cc45)nc23)cn1 [Compound 184, 3-Methyl-N-(5-(3-(4-(4-methyl-1H-imidazol-1-yl)-1H-imidazo[4,5-c]pyridin-2-yl)-1H-indazol-5-yl)pyridin-3-yl)butanamide]	0.049
0.171	NC1CN(c2cncc(-c3ccc4[nH]nc(-c5nc6c(-c7cccc(F)c7)nccc6[nH]5)c4c3)n2)C1 [Compound 1774, 1-(6-(3-(4-(3-Fluorophenyl)-1H-imidazo[4,5-c]pyridin-2-yl)-1H-indazol-5-yl)pyrazin-2-yl)azetidin-3-amine]	0.102
0.32	FC1(F)CCN(Cc2cncc(-c3ccc4[nH]nc(-c5nc6c(-c7cccs7)nccc6[nH]5)c4c3)c2)C1 [Compound 311, 2-(5-(5-((3,3-Difluoropyrrolidin-1-yl)methyl)pyridin-3-yl)-1H-indazol-3-yl)-4-(thiophen-2-yl)-1H-imidazo[4,5-c]pyridine]	0.083
0.0594	O=C(Nc1cncc(-c2ccc3[nH]nc(-c4nc5c(-c6ccsc6)nccc5[nH]4)c3c2)c1)C1CCCC1 [Compound 255, N-(5-(3-(4-(Thiophen-3-yl)-1H-imidazo[4,5-c]pyridin-2-yl)-1H-indazol-5-yl)pyridin-3-yl)cyclopentanecarboxamide]	1.22
0.284	Fc1ccc(-c2nccc3[nH]c(-c4n[nH]c5ccc(-c6cncc(CN7CCCC7)c6)cc45)nc23)s1 [Compound 326, 4-(5-Fluorothiophen-2-yl)-2-(5-(5-(pyrrolidin-1-ylmethyl)pyridin-3-yl)-1H-indazol-3-yl)-1H-imidazo[4,5-c]pyridine]	0.94
0.013	CC(C)(C)C(=O)Nc1cncc(-c2ccc3[nH]nc(-c4nc5c(-c6ccc(F)cc6)nccc5[nH]4)c3c2)c1 [Compound 34, N-(5-(3-(4-(4-fluorophenyl)-1H-imidazo[4,5-c]pyridin-2-yl)-1H-indazol-5-yl)pyridin-3-yl)pivalamide]	0.009
0.025	COc1cncc(-c2ccc3[nH]nc(-c4nc5c(-c6cccc(F)c6)nccc5[nH]4)c3c2)c1 [Compound 1780, 4-(3-Fluorophenyl)-2-(5-(5-methoxypyridin-3-yl)-1H-indazol-3-yl)-1H-imidazo[4,5-c]pyridine]	0.019
0.035	Fc1cccc(-c2nccc3[nH]c(-c4n[nH]c5ccc(-c6cnccn6)cc45)nc23)c1 [Compound 1786, 4-(3-Fluorophenyl)-2-(5-(pyrazin-2-yl)-1H-indazol-3-yl)-1H-imidazo[4,5-c]pyridine]	0.009
0.332	CN(C)Cc1cncc(-c2ccc3[nH]nc(-c4nc5c(-c6cccs6)nccc5[nH]4)c3c2)c1 [Compound 299, N,N-Dimethyl-1-(5-(3-(4-(thiophen-2-yl)-1H-imidazo[4,5-c]pyridin-2-yl)-1H-indazol-5-yl)pyridin-3-yl)methanamine]	0.608
0.01	Fc1cccc(-c2nccc3[nH]c(-c4n[nH]c5ccc(-c6cncc(CN7CCC(F)(F)C7)c6)cc45)nc23)c1 [Compound 25, 2-(5-(5-((3,3-Difluoropyrrolidin-1-yl)methyl)pyridin-3-yl)-1H-indazol-3-yl)-4-(3-fluorophenyl)-1H-imidazo[4,5-c]pyridine]	0.056
0.0127	Cc1ccc(-c2nccc3[nH]c(-c4n[nH]c5ccc(-c6cncc(NC(=O)CC(C)(C)C)c6)cc45)nc23)s1 [Compound 354, 3,3-Dimethyl-N-(5-(3-(4-(5-methylthiophen-2-yl)-1H-imidazo[4,5-c]pyridin-2-yl)-1H-indazol-5-yl)pyridin-3-yl)butanamide]	0.086
0.005	CC(C)C(=O)Nc1cncc(-c2ccc3[nH]nc(-c4nc5c(-c6ccccc6F)nccc5[nH]4)c3c2)c1 [Compound 61, N-(5-(3-(4-(2-Fluorophenyl)-1H-imidazo[4,5-c]pyridin-2-yl)-1H-indazol-5-yl)pyridin-3-yl)isobutyramide]	0.079
